According to patent publication US12378203B2, “Imidazole compounds, process for the synthesis and uses thereof” (AHAMMUNE BIOSCIENCES PRIVATE LIMITED, priority 2018, dated 2025):

Experiments:
Type in all cases: cell-based
[1] = system: human A375 cells; experiment: Protection of melanocytes from tunicamycin (ER stress) induced cell death, MTT assay, A375; details: for EC50: Homo sapiens, A-375, different concentrations of compound along with tunicamycin, GraphPad Prism 7; for % Recovery: compound at 25-30 μM, 6 h pretreatment, tunicamycin 100 ng/ml, total 72 h, cell growth over tunicamycin treatment
Method: (§1) Compounds synthesized under present invention were tested for their in vitro potency. The potency was tested as their ability to protect melanocytes from ER stress induced cell death. ER stress was caused by the treatment of tunicamycin. The results obtained are summarized in Table-I, Table-II and Table-III for mouse B16F10 cells, human A375 cells and human primary melanocytes respectively. Table-IV and Table-V describes the potency of the compounds in effective concentration 50 (EC50) which means the dose of compound needed to get the 50% of maximum effect.
(§2) For the estimation of potency, mouse B16F10, human A375 or human primary melanocytes (NHEM) cells were pretreated in quadruplicates with these compounds for 6 hours. After 6 hours of incubation, tunicamycin was added at either 300 ng/ml for B16F10 cells or at 100 ng/ml for A375 cells or at 200 ng/ml for NHEM to induce stress mediated cell death and cultured further for a total of 72 hours. The vehicle (DMSO) concentration was kept constant for each well. After 72 hours of treatment, MTT assay was performed to measure the cell growth and vehicle control was kept at 100%. Effect of the treatment of compounds was calculated as cell growth over tunicamycin treatment. For the estimation of Effective Concentration 50 (EC50), cells were treated with different concentration of compounds along with tunicamycin and MTT assay was performed. The EC50 values were calculated by GraphPad Prism 7 software.

[2] = system: mouse B16F10 cells; experiment: Protection of melanocytes from tunicamycin (ER stress) induced cell death, MTT assay, B16F10; details: for % Recovery: compound at 25-30 μM, 6 h pretreatment, tunicamycin 300 ng/ml, total 72 h, cell growth over tunicamycin treatment
Method: as §1, §2

[3] = system: human primary melanocytes (NHEM: Normal Human Epidermal Melanocytes); experiment: Protection of melanocytes from tunicamycin (ER stress) induced cell death, MTT assay, NHEM; details: compound at 25-30 μM, 6 h pretreatment, tunicamycin 200 ng/ml, total 72 h, cell growth over tunicamycin treatment
Method: as §1, §2

Row | SMILES | EC50 [1] [µM] | % Recovery [1] [%] | % Recovery [2] [%] | % Recovery [3] [%] | EC50 ([2]; Mus musculus, B16-F10, different concentrations of compound along with tunicamycin, GraphPad Prism 7) [µM]
1 | O=C(NCCc1c[nH]c(-c2ccc(Cl)cc2)n1)C1CC1 [Compound 046, N-(2-(2-(4-chlorophenyl)-1H-imidazol-4-yl)ethyl)cyclopropanecarboxamide] | 7.9 | 63 | 27 | 10 | 
2 | CCCC(=O)NCCc1c[nH]c(-c2ccc(Cl)cc2)n1 [Compound 002, N-(2-(2-(4-chlorophenyl)-1H-imidazol-4-yl)ethyl)butyramide] | 20.6 | 22 | 58 | 17 | 2.71
3 | O=C(NCCc1c[nH]c(-c2ccc(Cl)cc2)n1)C1CCC1 [Compound 050, N-(2-(2-(4-chlorophenyl)-1H-imidazol-4-yl)ethyl)cyclobutanecarboxamide] | 33.4 | 27 | 35 | 5 | 
4 | O=C(NCCc1c[nH]c(-c2ccc(Cl)cc2)n1)c1cc(F)cc(F)c1 [Compound 054, N-(2-(2-(4-chlorophenyl)-1H-imidazol-4-yl)ethyl)-3,5-difluorobenzamide] | 2.9 | 58 | 33 | 46 | 
